Entries after “also recorded” stand apart in the source; their conditions may differ. Like-named read-outs stand apart in the source and are kept apart here. Marks after values point to notes of the source that are not given here.
What was measured:
[1] = cited from earlier work
[2] = test system: OATP-B; design: method as in PMID 16415120; settings: cited from earlier work
[3] = test system: CYP3A; settings: in vitro, different CYP3A substrates; read-out: IC50 of CYP3A inhibition; cited from earlier work
[4] = combined use with St. John’s wort, a CYP3A4 inducer; cited from earlier work
[5] = in vivo; settings: male, Sprague Dawley, rat, po, 30 mg/kg
[6] = after oral administration of imatinib; cited from earlier work
[7] = intragastric administration of green tea, rats
[8] = male, Sprague Dawley, rat, in vivo, po, 30 mg/kg
[9] = metabolite, rats, imatinib 30 mg/kg IG + KTZ 75 mg/kg/day 3 days
[10] = metabolite, rats, imatinib 30 mg/kg IG + h-GS 100 mg/kg/day 21 days
[11] = metabolite, rats, imatinib 30 mg/kg IG + h-GS 100 mg/kg/day 21 days, vs imatinib only
[12] = metabolite, rats, imatinib 30 mg/kg IG + h-GS 100 mg/kg/day 21 days, vs l-GS group
[13] = metabolite, rats, imatinib 30 mg/kg IG + h-GS 100 mg/kg/day 21 days, when GS dose was doubled
[14] = metabolite, rats, imatinib 30 mg/kg IG + h-GS and h-GT 100 mg/kg/day each 21 days
[15] = metabolite, rats, imatinib 30 mg/kg IG + h-GS and h-GT 100 mg/kg/day each 21 days, vs imatinib only
[16] = metabolite, rats, imatinib 30 mg/kg IG + h-GS and h-GT 100 mg/kg/day each 21 days, vs l-GS and l-GT group
[17] = metabolite, rats, imatinib 30 mg/kg IG + h-GT 100 mg/kg/day 21 days
[18] = metabolite, rats, imatinib 30 mg/kg IG + l-GS 50 mg/kg/day 21 days
[19] = metabolite, rats, imatinib 30 mg/kg IG + l-GT 50 mg/kg/day 21 days
[20] = metabolite, rats, imatinib 30 mg/kg IG only (control)
[21] = rats, imatinib 30 mg/kg IG + KTZ 75 mg/kg/day 3 days
[22] = rats, imatinib 30 mg/kg IG + h-GS 100 mg/kg/day 21 days
[23] = rats, imatinib 30 mg/kg IG + h-GS and h-GT 100 mg/kg/day each 21 days
[24] = rats, imatinib 30 mg/kg IG + h-GT 100 mg/kg/day 21 days
[25] = rats, imatinib 30 mg/kg IG + l-GS 50 mg/kg/day 21 days
[26] = rats, imatinib 30 mg/kg IG + l-GS and l-GT 50 mg/kg/day each 21 days
[27] = rats, imatinib 30 mg/kg IG + l-GT 50 mg/kg/day 21 days
[28] = rats, imatinib 30 mg/kg IG only (control)

Oc1cc(O)c2c(c1)O[C@H](c1ccc(O)c(O)c1)[C@H](O)C2 [EC, (−)-epicatechin]
bioavailability [1, 7]: 31.2%
inhibition of estrone-3-sulfate uptake ([2]; concentration of 10 mM): 27.2%

Oc1cc(O)c2c(c1)O[C@H](c1ccc(O)c(O)c1)[C@@H](O)C2 [(+)-catechin]
inhibition of estrone-3-sulfate uptake ([2]; concentration of 100 mM): 31.7%

Oc1cc(O)c2c(c1)O[C@H](c1cc(O)c(O)c(O)c1)[C@H](O)C2 [EGC, (−)-epigallocatechin]
bioavailability ([1]; rat, in vivo, po): 13.7%
inhibition of estrone-3-sulfate uptake ([2]; concentration of 100 mM): 29.1%

O=C(O[C@@H]1Cc2c(O)cc(O)cc2O[C@@H]1c1cc(O)c(O)c(O)c1)c1cc(O)c(O)c(O)c1 [EGCG, (−)-epigallocatechin-3-gallate]
bioavailability [1, 7]: 0.1%
inhibition of estrone-3-sulfate uptake ([2]; concentration of 10 mM): 29.5%

Cc1ccc(NC(=O)c2ccc(CN3CCN(C)CC3)cc2)cc1Nc1nccc(-c2cccnc2)n1 [Imatinib, reference compound]
reduction of the area under the curve (AUC) [4]: 30%
Cmax [5]: 6400 ± 3160 ng/mL
AUC0∞ [8]: 105,160.8 ± 75,643.2 ng^.h/mL
tmax [8]: 4.8 ± 2.3 h
decrease in t0.5 (rats, imatinib 30 mg/kg IG + h-GS 100 mg/kg/day 21 days, vs imatinib only): ↓ 16.1%*
decrease in t0.5 (rats, imatinib 30 mg/kg IG + h-GS 100 mg/kg/day 21 days, vs imatinib only, listed as imatinib): 16.1%
decrease in t0.5 (rats, imatinib 30 mg/kg IG + h-GS and h-GT 100 mg/kg/day each 21 days, vs imatinib only): 21.9%
decrease in t0.5 (rats, imatinib 30 mg/kg IG + h-GS and h-GT 100 mg/kg/day each 21 days, vs l-GS and l-GT group): 23.1%
decrease in t0.5 (rats, imatinib 30 mg/kg IG + h-GT 100 mg/kg/day 21 days, vs imatinib only): ↓ 15.8%*
decrease in t0.5 (rats, imatinib 30 mg/kg IG + h-GT 100 mg/kg/day 21 days, vs imatinib only, listed as imatinib): 15.8%
increase in t0.5 (rats, imatinib 30 mg/kg IG + l-GS and l-GT 50 mg/kg/day each 21 days, vs l-GS group): 1.1 fold
increase in t0.5 (rats, imatinib 30 mg/kg IG + l-GS and l-GT 50 mg/kg/day each 21 days, vs l-GT group): 1.3 fold

Cc1ccc(NC(=O)c2ccc(CN3CCNCC3)cc2)cc1Nc1nccc(-c2cccnc2)n1 [N-desmethyl imatinib]
elimination half-life [6]: 40 h
t0.5 [9]: 9.9 ± 4.4 h
tmax [9]: 7.5 ± 1.0 h
MRT [10]: 9.5 ± 1.0 h
t0.5 [10]: 7.1 ± 0.9 h
tmax [10]: 4.7 ± 2.0 h
decrease in AUC0∞ [11]: 73.0%
decrease in Cmax [11]: 67.8%
increase in CL/F [11]: 3.7 fold
increase in Vz/F [11]: 4.1 fold
decrease in AUC0∞ [12]: 58.5%
decrease in Cmax [12]: 63.3%
increase in CL/F [12]: 2.5 fold
increase in Vz/F [12]: 2.9 fold
decrease in AUC0∞ [13]: ~ 2 fold
decrease in Cmax [13]: ~ 2 fold
MRT [14]: 11.9 ± 2.3 h
tmax [14]: 4.8 ± 2.2 h
increase in t0.5 (metabolite, rats, imatinib 30 mg/kg IG + h-GS and h-GT 100 mg/kg/day each 21 days, vs h-GS group): 1.5 fold
increase in t0.5 (metabolite, rats, imatinib 30 mg/kg IG + h-GS and h-GT 100 mg/kg/day each 21 days, vs h-GT group): 1.4 fold
decrease in AUC0∞ [15]: 72.1%
decrease in Cmax [15]: 71.5%
increase in CL/F [15]: 5.3 fold
increase in Vz/F [15]: 8.7 fold
increase in t0.5 [15]: 1.6 fold
decrease in AUC0∞ [16]: 75.8%
decrease in Cmax [16]: 71.9%
increase in CL/F [16]: 6.5 fold
increase in Vz/F [16]: 8.8 fold
increase in t0.5 [16]: 1.3 fold
increase in the terminal half-life (metabolite, rats, imatinib 30 mg/kg IG + h-GS and h-GT 100 mg/kg/day each 21 days, vs other high dose groups (h-GS or h-GT, not specified)): 1.4 fold
MRT [17]: 11.9 ± 2.6 h
tmax [17]: 5.2 ± 2.6 h
Cmax [18]: 408.8 ± 113.6 ng/mL
t0.5 [18]: 6.2 ± 0.5 h
tmax [18]: 4.2 ± 1.0 h
tmax (metabolite, rats, imatinib 30 mg/kg IG + l-GS and l-GT 50 mg/kg/day each 21 days): 5.8 ± 2.6 h
effect on pharmacokinetics (metabolite, rats, imatinib 30 mg/kg IG + l-GS and l-GT 50 mg/kg/day each 21 days, vs imatinib only): no significant effects; also recorded: not significantly affected
increase in AUC0∞ (metabolite, rats, imatinib 30 mg/kg IG + l-GS and l-GT 50 mg/kg/day each 21 days, vs l-GS group): 1.8 fold
increase in AUC0∞ (metabolite, rats, imatinib 30 mg/kg IG + l-GS and l-GT 50 mg/kg/day each 21 days, vs l-GT group): 6.1 fold
MRT [19]: 11.2 ± 1.8 h
t0.5 [19]: 8.0 ± 0.7 h
tmax [19]: 5.3 ± 1.6 h
AUC0∞ [20]: 7143.3 ± 2165.3 ng^.h/mL
Cmax [20]: 465.6 ± 94.0 ng/mL
MRT [20]: 11.6 ± 3.8 h
t0.5 [20]: 6.6 ± 0.5 h
tmax [20]: 6.7 ± 2.1 h
differences in pharmacokinetic parameters (metabolite, rats, imatinib 30 mg/kg IG, l-GT vs h-GT group): no significant differences
AUC0∞ metabolite/AUC0∞ drug percentage [21]: 3.3%
Cmax (metabolite) /Cmax (drug) percentage [21]: 3.4%
AUC0∞ metabolite/AUC0∞ drug percentage [22]: 6.6%
Cmax (metabolite) /Cmax (drug) percentage [22]: 6.0%
AUC0∞ metabolite/AUC0∞ drug percentage [23]: 4.0%
Cmax (metabolite) /Cmax (drug) percentage [23]: 3.6%
AUC0∞ metabolite/AUC0∞ drug percentage [24]: 6.0%
Cmax (metabolite) /Cmax (drug) percentage [24]: 5.3%
AUC0∞ metabolite/AUC0∞ drug percentage [25]: 7.8%
Cmax (metabolite) /Cmax (drug) percentage [25]: 7.9%
AUC0∞ metabolite/AUC0∞ drug percentage [26]: 5.5%
Cmax (metabolite) /Cmax (drug) percentage [26]: 5.0%
AUC0∞ metabolite/AUC0∞ drug percentage [27]: 3.5%
Cmax (metabolite) /Cmax (drug) percentage [27]: 3.2%
AUC0∞ metabolite/AUC0∞ drug percentage [28]: 6.8%
Cmax (metabolite) /Cmax (drug) percentage [28]: 7.3%

(−)-epicatechin-3-gallate [ECG]
inhibition of estrone-3-sulfate uptake ([2]; concentration of 10 mM): 66.6%

Source: PMC7670682 (BMC Pharmacology & Toxicology, 2020)
